Laboratory results taken from ChEMBL document CHEMBL5316381, “Discovery of [1,2,3]Triazolo[4,5-c]quinoline Derivatives as a New Class of Ataxia-Telangiectasia Mutated Kinase Inhibitors” (ACS Med Chem Lett, 2023).
The source made the active and inactive calls. The calls are words filed in the database; no cut-off is given here.

Columns and labels:
HCT-116 [1] = experiment: Induction of apoptosis in human HCT-116 cells assessed as early apoptotic cells at 100 nM measured after 72 hrs by Annexin V-FITC staining based flow cytometric analysis (reference value: 4.06%); type: functional
SW-620 [2] = experiment: Induction of apoptosis in human SW620 cells assessed as early apoptotic cells at 100 nM measured after 72 hrs in presence of CPT-11 by Annexin V-FITC staining based flow cytometric analysis (reference value: 1.06%); type: functional
HCT-116 [3] = experiment: Anticancer activity against human HCT-116 cells assessed as reduction in cell viability by measuring fold change in CPT-11 IC50 at 100 nM incubated for 5 days by MTT assay relative irinotecan alone; type: functional; details: time 5 day
[4] = target: PI3-kinase p110-delta/p85-alpha (Homo sapiens, UniProt O00329); experiment: Inhibition of human PI3K p110 delta/p85 alpha using phosphatidylinositol-4, 5-bisphosphate as substrate incubated for 30 mins in the presence of Mg/ATP mix by HTRF-based analysis; type: protein-complex assay
SW-620 [5] = experiment: Radiosensitizing activity against human SW620 cells assessed as reduction in colony formation at 9 nM incubated after 14 days in the presence of 1.5 Gy irradiation by crystal violet staining based analysis; type: functional, cell-based; details: time 14.0 day
HCT-116 [6] = experiment: Induction of apoptosis in human HCT-116 cells assessed as necrotic cells at 100 nM measured after 72 hrs by Annexin V-FITC staining based flow cytometric analysis (reference value: 2.41%); type: functional
SW-620 [7] = experiment: Cell cycle arrest in human SW620 cells assessed as accumulation of cells at G2/M phase incubated for 24 hrs in presence of CPT-11 by PI staining based flow cytometric analysis; type: functional; details: dose 10-100 nM
SW-620 [8] = experiment: Induction of apoptosis in human SW620 cells assessed as viable cells at 10 nM measured after 72 hrs in presence of CPT-11 by Annexin V-FITC staining based flow cytometric analysis (reference value: 87.36%); type: functional; details: read-out: Activity
HCT-116 [9] = experiment: Induction of apoptosis in human HCT-116 cells assessed as late apoptotic cells at 30 nM measured after 72 hrs in presence of CPT-11 by Annexin V-FITC staining based flow cytometric analysis (reference value: 19.80%); type: functional
SW-620 [10] = experiment: Radiosensitizing activity against human SW620 cells assessed as reduction in colony formation at 27 nM incubated after 14 days in the presence of 3 Gy irradiation by crystal violet staining based analysis; type: functional, cell-based; details: time 14.0 day
SW-620 [11] = experiment: In vivo inhibition of ATM in BALB/c mouse model xenografted with human SW620 cells assessed as inhibition of Chk2 phosphorylation at 5 mg/kg, ip administered once daily and measured after 23 days in the presence of CPT-11 by Western blot analysis; type: functional, organism-based; details: time 23.0 day
HCT-116 [12] = experiment: Induction of apoptosis in human HCT-116 cells assessed as late apoptotic cells at 10 nM measured after 72 hrs in presence of CPT-11 by Annexin V-FITC staining based flow cytometric analysis (reference value: 19.80%); type: functional
SW-620 [13] = experiment: Induction of apoptosis in human SW620 cells assessed as necrotic cells at 100 nM measured after 72 hrs by Annexin V-FITC staining based flow cytometric analysis (reference value: 5.83%); type: functional
SW-620 [14] = experiment: Antiproliferative activity against human SW620 cells assessed as reduction in colony formation at 27 nM measured after 14 days by crystal violet staining based microscopic analysis; type: functional, cell-based; details: time 14.0 day
SW-620 [15] = experiment: Anticancer activity against human SW620 cells assessed as reduction in cell viability by measuring fold change in CPT-11 IC50 at 100 nM incubated for 5 days by MTT assay relative irinotecan alone; type: functional; details: time 5 day
SW-620 [16] = experiment: Induction of apoptosis in human SW620 cells assessed as early apoptotic cells at 30 nM measured after 72 hrs in presence of CPT-11 by Annexin V-FITC staining based flow cytometric analysis (reference value: 1.06%); type: functional
[17] = target: DNA-dependent protein kinase catalytic subunit (Homo sapiens, UniProt P78527); experiment: Inhibition of DNA-PK (unknown origin) using GST-cMyc-p53 as substrate incubated for 30 mins in the presence of Mg/ATP mix by HTRF-based analysis
DNA-dependent protein kinase catalytic subunit, sequence (P78527 whole entry, canonical isoform): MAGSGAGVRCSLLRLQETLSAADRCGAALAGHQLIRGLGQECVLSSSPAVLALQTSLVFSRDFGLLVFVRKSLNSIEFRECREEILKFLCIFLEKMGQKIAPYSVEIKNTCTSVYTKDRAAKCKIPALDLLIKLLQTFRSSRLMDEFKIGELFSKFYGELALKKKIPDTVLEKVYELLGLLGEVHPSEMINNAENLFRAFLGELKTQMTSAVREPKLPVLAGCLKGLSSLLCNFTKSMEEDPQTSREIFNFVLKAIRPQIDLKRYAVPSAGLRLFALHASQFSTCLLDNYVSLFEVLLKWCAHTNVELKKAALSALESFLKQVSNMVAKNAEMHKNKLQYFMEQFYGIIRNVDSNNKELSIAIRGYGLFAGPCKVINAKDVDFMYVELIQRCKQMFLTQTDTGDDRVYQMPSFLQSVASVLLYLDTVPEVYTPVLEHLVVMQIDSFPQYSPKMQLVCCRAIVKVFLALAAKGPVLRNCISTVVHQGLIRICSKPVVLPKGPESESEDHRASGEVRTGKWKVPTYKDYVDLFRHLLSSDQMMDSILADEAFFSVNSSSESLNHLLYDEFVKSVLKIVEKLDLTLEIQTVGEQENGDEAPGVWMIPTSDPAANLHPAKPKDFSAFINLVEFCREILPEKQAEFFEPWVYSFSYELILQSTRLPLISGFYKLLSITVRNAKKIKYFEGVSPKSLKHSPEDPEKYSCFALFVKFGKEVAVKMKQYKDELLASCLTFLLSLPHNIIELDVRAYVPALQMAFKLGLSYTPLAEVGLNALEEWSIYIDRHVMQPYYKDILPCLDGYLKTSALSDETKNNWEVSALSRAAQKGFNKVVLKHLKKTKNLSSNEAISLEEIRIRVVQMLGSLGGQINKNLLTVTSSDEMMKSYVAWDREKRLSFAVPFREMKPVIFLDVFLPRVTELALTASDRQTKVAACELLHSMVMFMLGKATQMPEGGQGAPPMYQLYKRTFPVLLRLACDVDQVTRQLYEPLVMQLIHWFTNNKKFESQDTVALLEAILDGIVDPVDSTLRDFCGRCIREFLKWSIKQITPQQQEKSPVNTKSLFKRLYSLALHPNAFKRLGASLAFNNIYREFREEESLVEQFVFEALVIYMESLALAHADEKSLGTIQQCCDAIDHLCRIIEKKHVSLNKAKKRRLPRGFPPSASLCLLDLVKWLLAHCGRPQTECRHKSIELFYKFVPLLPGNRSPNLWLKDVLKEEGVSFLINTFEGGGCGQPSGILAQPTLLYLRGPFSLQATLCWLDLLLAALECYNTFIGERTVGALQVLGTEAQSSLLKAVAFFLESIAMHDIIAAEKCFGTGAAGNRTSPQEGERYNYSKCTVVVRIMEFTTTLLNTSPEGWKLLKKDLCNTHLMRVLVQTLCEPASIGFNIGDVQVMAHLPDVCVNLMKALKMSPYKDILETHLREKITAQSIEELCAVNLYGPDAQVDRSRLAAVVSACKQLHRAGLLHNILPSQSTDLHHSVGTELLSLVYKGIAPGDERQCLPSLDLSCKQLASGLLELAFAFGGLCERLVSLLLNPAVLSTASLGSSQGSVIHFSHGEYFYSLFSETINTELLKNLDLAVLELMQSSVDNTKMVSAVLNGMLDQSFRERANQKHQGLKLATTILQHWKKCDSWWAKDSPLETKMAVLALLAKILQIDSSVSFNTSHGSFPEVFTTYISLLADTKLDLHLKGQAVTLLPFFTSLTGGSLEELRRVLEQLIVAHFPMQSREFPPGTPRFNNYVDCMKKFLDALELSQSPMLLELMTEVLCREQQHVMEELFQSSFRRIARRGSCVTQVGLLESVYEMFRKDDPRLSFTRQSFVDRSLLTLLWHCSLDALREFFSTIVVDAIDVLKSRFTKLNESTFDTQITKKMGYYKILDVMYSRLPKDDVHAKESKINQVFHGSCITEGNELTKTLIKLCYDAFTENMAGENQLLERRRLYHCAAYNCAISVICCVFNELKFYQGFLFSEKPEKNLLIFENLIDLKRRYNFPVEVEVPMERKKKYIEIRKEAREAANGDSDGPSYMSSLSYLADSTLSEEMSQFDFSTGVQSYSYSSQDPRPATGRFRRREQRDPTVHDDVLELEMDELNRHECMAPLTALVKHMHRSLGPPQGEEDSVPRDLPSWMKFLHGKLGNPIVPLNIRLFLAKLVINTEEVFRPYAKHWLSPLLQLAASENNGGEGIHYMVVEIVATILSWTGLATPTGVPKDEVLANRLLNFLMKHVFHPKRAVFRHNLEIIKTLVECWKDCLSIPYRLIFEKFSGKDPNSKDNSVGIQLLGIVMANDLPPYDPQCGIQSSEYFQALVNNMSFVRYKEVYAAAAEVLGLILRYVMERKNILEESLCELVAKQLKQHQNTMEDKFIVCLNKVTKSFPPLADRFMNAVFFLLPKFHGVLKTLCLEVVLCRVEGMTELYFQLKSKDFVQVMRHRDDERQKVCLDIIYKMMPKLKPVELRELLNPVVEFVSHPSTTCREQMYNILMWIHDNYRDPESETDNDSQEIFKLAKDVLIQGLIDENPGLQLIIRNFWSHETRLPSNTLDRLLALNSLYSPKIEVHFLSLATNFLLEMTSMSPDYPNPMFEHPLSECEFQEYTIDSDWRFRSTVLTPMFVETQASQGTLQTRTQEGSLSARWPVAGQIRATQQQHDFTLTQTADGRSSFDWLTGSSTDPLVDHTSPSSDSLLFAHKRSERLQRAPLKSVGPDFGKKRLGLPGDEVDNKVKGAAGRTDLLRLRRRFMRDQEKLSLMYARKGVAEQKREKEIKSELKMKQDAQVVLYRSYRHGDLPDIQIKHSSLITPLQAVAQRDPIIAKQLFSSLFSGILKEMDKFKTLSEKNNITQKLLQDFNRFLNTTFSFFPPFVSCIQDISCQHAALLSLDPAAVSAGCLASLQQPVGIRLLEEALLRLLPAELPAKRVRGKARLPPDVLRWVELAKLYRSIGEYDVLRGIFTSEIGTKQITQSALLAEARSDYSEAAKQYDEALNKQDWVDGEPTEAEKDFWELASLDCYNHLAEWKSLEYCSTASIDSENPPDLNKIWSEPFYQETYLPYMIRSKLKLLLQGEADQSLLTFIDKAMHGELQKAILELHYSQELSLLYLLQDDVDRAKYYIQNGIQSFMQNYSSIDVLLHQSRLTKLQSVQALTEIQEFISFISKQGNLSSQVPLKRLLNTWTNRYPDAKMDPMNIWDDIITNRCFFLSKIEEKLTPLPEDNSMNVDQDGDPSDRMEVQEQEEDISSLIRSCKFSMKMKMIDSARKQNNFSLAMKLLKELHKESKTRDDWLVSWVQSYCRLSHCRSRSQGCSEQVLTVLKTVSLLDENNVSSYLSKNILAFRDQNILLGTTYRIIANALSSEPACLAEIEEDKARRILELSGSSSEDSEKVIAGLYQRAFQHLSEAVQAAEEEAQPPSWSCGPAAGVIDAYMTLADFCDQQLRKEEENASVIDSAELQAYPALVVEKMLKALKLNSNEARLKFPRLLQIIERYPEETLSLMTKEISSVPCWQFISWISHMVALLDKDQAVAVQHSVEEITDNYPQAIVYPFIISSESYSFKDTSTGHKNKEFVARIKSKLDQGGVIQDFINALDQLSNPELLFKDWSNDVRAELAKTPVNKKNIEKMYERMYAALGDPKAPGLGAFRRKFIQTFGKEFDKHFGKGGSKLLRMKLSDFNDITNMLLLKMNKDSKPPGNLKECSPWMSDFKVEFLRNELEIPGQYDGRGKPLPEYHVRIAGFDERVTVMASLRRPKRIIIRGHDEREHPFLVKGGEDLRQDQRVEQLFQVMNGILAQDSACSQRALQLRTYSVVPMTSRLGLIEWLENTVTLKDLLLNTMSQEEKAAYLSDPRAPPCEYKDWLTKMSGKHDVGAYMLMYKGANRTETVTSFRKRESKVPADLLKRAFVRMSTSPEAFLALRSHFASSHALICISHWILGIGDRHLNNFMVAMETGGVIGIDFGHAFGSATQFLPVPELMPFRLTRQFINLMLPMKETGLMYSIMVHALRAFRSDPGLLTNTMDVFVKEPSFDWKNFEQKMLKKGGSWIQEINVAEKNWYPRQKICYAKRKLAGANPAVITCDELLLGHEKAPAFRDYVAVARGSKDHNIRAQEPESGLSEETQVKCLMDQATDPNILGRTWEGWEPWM

[18] = target: Phosphatidylinositol 4,5-bisphosphate 3-kinase catalytic subunit gamma isoform (Homo sapiens, UniProt P48736); experiment: Inhibition of human PI3K p120 gamma using phosphatidylinositol-4, 5-bisphosphate as substrate incubated for 30 mins in the presence of Mg/ATP mix by HTRF-based analysis
[19] = target: Serine/threonine-protein kinase Chk2 (Homo sapiens) (UniProt O96017); experiment: Inhibition of CPT-11 induced Chk2 phosphorylation in human SW620 cells by SDS-PAGE based Westernblot analysis; type: cell-based
Serine/threonine-protein kinase Chk2 (Homo sapiens), sequence (O96017 whole entry): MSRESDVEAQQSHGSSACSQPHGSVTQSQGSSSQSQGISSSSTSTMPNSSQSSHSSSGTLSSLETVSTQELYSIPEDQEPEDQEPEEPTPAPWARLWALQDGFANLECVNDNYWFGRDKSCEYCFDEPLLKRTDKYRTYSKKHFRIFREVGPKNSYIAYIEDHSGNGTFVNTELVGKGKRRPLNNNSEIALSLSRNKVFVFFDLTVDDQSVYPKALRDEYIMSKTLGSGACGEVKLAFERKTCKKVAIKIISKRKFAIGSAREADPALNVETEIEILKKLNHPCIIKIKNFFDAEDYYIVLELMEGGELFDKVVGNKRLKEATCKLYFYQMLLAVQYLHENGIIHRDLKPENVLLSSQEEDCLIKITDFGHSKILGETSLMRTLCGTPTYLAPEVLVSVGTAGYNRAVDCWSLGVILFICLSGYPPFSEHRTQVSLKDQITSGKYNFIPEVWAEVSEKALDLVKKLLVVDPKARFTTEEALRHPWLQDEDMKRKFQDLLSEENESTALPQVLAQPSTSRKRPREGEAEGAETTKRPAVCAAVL

SW-620 [20] = experiment: Radiosensitizing activity against human SW620 cells assessed as reduction in colony formation at 27 nM incubated after 14 days in the presence of 1.5 Gy irradiation by crystal violet staining based analysis; type: functional, cell-based; details: time 14.0 day
SW-620 [21] = experiment: Antitumor activity against human SW620 cells xenografted in BALB/C mouse assessed as reduction in tumor volume at 5 mg/kg, ip administered once a week and measured after 23 days in the presence of CPT-11; type: functional, organism-based; details: time 23.0 day
PI3K p110 beta/p85 alpha = PI3K p110 beta/p85 alpha (Homo sapiens, UniProt P42338); experiment: Inhibition of human PI3K p110 beta/p85 alpha using phosphatidylinositol-4, 5-bisphosphate as substrate incubated for 30 mins in the presence of Mg/ATP mix by HTRF-based analysis; type: protein-complex assay
SW-620 [22] = experiment: Induction of apoptosis in human SW620 cells assessed as necrotic cells at 100 nM measured after 72 hrs in presence of CPT-11 by Annexin V-FITC staining based flow cytometric analysis (reference value: 5.83%); type: functional
HCT-116 [23] = experiment: Induction of apoptosis in human HCT-116 cells assessed as late apoptotic cells at 1 uM measured after 72 hrs by Annexin V-FITC staining based flow cytometric analysis (reference value: 19.80%); type: functional
SW-620 [24] = experiment: Induction of apoptosis in human SW620 cells assessed as necrotic cells at 30 nM measured after 72 hrs in presence of CPT-11 by Annexin V-FITC staining based flow cytometric analysis (reference value: 5.83%); type: functional
HCT-116 [25] = experiment: Induction of apoptosis in human HCT-116 cells assessed as early apoptotic cells at 30 nM measured after 72 hrs in presence of CPT-11 by Annexin V-FITC staining based flow cytometric analysis (reference value: 4.06%); type: functional
[26] = Toxicity in BALB/c mouse xenografted with human SW620 cells assessed as liver damage at 5 mg/kg, ip administered once daily and measured after 23 days by H&E staining based microscopic analysis; type: organism-based, SW-620; details: in vivo, 552 h, time 23 day
SW-620 [27] = experiment: Induction of apoptosis in human SW620 cells assessed as viable cells at 100 nM measured after 72 hrs by Annexin V-FITC staining based flow cytometric analysis (reference value: 87.36%); type: functional; details: read-out: Activity
[28] = Toxicity in BALB/c mouse xenografted with human SW620 cells assessed as lung damage at 5 mg/kg, ip administered once daily and measured after 23 days by H&E staining based microscopic analysis; type: organism-based, SW-620; details: in vivo, 552 h, time 23 day
HCT-116 [29] = experiment: Induction of apoptosis in human HCT-116 cells assessed as necrotic cells at 30 nM measured after 72 hrs in presence of CPT-11 by Annexin V-FITC staining based flow cytometric analysis (reference value: 2.41%); type: functional

In the case of `C[C@H](c1ccccc1)n1nnc2cnc3ccc(-c4ccc(OCCCN(C)C)nc4)cc3c21`, the Activity (HCT-116 [1]) is reported as 1.21%, the Activity (SW-620 [2]) is reported as 7.18% and the “fold change (FC)” value (HCT-116 [3]) is reported as 16. For the same compound, the IC50 [4] was 1030 nM, the Activity (SW-620 [5]) was “Active” and the Activity (HCT-116 [6]) was 9.24%. The Activity (SW-620 [7]) was “Dose-Dependent Effect”, the viability at 0.01 µM (SW-620 [8]) was 64.1% and the Activity (HCT-116 [9]) was 63.63%. The Activity (SW-620 [10]) was “Active”, the inhibition (SW-620 [11]) was “Active” and the Activity (HCT-116 [12]) was 34.21%. The Activity (SW-620 [13]) was 6.3%, the Activity (SW-620 [14]) was “inactive” and the “fold change (FC)” value (SW-620 [15]) was 4.4. For the same compound, the Activity (SW-620 [16]) was 6.95%, the IC50 [17] was 123 nM and the IC50 [18] was over 10000 nM. The inhibition [19] was “Dose-Dependent Effect”, the Activity (SW-620 [20]) was “Active” and the Activity (SW-620 [21]) was “Active”. For the same compound, the IC50 (PI3K p110 beta/p85 alpha) was 1850 nM, the Activity (SW-620 [22]) was 1.63% and the Activity (HCT-116 [23]) was 31.02%. For the same compound, the Activity (SW-620 [24]) was 1.83%, the Activity (HCT-116 [25]) was 2.23% and the Activity [26] was “Non-Toxic”. The viability at 0.1 µM (SW-620 [27]) was 80.2%, the Activity [28] was “Non-Toxic” and the Activity (HCT-116 [29]) was 8.39%.
